Source: patent US4128629A, “Extraction-free cortisol assay” (Corning Glass Works, priority 1977, dated 1978)
Several values for one entry are separate records, joined by “and”; a condition that tells them apart may be missing. Equal entries are not always repeated.

Key:
[1] = tested on: anticortisol antibody composite; test: Cross-reactivity (specificity) of the solid phase cortisol radioimmunoassay; type: binding; design: key: ratio of cortisol to cross-reactant amount at 50% displacement; details: ratio of the cortisol level to the steroid level at fifty percent relative displacement of labeled cortisol from immobilized anti-cortisol antibody
Experimental: (§1) A lyophilized mixture of the tracer (about 50,000 DPM), 200 μg of ANS, and PBS is reconstituted to a 100 μl solution with water in an identified glass test tube to which is pipetted a […] serum sample having an unknown cortisol concentration. A non-interferring red dye such as Durkees Staff Brand may be included with the tracer solution to indicate that presence of the tracer.
(§2) Then, a 1 ml suspension of the immobilized antibodies (0.20 mg of anti-cortisol antibodies chemically coupled via N-hydroxysuccinimide linkage to silanized glass particles having an average particle size of about 1.7 microns is pipetted into the tube. The tube is vortexed for 2 or 3 seconds, allowing the composite of immobilized antibodies to be suspended. The reaction tube is incubated for about 1 hour at room temperature. The tube is then centrifuged for about 10 minutes at about 1400 to 1600 gravities (g). The relatively high density of the glass support facilitates this separation step. After centrifugation, the supernatant fluid is decanted and it or the composite at the bottom of the tube is counted for radioactivity. Since the amount of radioactivity in disintegrations per minute (DPM) of the initial tracer was known, the amount associated with the composite (that which competed with the unknown cortisol for sites on the composite), provides an indication of the cortisol present, using known correlation techniques.
The cross-reactivity of the anticortisol antibody composite for a substance may be expressed as the ratio of the amount of cortisol required to displace 50% of the labeled antigen from the antibody, to the amount of cross-reacting substance needed to cause a similar displacement.

transcortin (TC) = molecular target: T1, transcortin (TC) (Homo sapiens, UniProt P08185); test: Cortisol released from serum sample (release from TC) by ANS and pH, compared with heat denaturation; details: typical patient serum samples; one value per patient sample; compared with heating at 100° C. for about 10 min
T1 sequence (P08185 23-405): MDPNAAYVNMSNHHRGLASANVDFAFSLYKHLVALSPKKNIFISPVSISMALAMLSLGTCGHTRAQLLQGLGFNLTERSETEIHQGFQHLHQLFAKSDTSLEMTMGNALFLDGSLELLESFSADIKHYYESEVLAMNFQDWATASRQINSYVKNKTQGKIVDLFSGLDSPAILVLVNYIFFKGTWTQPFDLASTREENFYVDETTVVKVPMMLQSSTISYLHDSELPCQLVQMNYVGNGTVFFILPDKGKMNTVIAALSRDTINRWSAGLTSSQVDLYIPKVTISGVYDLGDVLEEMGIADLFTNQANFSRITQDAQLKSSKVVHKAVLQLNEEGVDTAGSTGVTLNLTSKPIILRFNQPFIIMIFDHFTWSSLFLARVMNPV
Experimental: as §1
as §2, with “Since the amount of radioactivity in disintegrations per minute (DPM) of the initial tracer was known, the amount associated with the composite (that which competed with the unknown cortisol for sites on the composite), provides an indication of the cortisol present, using known correlation techniques.” left out

SMILES	Ratio of Cross Reactivity [1]	Cortisol Released (transcortin (TC))
C[C@]12CC[C@@H]3c4ccc(O)cc4CC[C@H]3[C@@H]1C[C@@H](O)[C@@H]2O [Estriol]	< 0.001	
C[C@]12CCC(=O)C[C@@H]1CC[C@@H]1[C@@H]2CC[C@]2(C)[C@@H](O)CC[C@@H]12 [5α-Dihydrotestosterone]	0.007	
C[C@]12CC[C@@H]3c4ccc(O)cc4CC[C@H]3[C@@H]1CCC2=O [Estrone]	< 0.001	
CC(=O)[C@@]1(O)CC[C@H]2[C@@H]3CCC4=CC(=O)CC[C@]4(C)[C@H]3CC[C@@]21C [17α-Hydroxyprogesterone]	0.026	
C[C@]12CC[C@@H]3c4ccc(O)cc4CC[C@H]3[C@@H]1CC[C@@H]2O [Estradiol-17β]	< 0.001	
C[C@]12CCC(=O)C=C1CC[C@@H]1[C@@H]2[C@@H](O)C[C@@]2(C)[C@H]1CC[C@]2(O)C(=O)CO [Cortisol]	1.00	
C[C@]12CC[C@H]3[C@@H](CCC4=CC(=O)CC[C@@]43C)[C@@H]1CC[C@@H]2O [Testosterone]	0.002	
O=S(=O)(O)c1cccc2cccc(Nc3ccccc3)c12 [ANS, 8-anilino-1-naphthalene sulfonic acid]		59 ng/mL and 90 ng/mL and 270 ng/mL and 465 ng/mL
C[C@]12CC[C@H]3[C@@H](CCC4=CC(=O)CC[C@@]43C)[C@@H]1CC[C@@H]2C(=O)CO [11-Desoxycorticosterone]	0.10	
CC(=O)[C@H]1CC[C@H]2[C@@H]3CCC4=CC(=O)CC[C@]4(C)[C@H]3CC[C@]12C [Progesterone]	0.041	
C[C@@H](O)[C@H]1CC[C@H]2[C@@H]3CCC4=CC(=O)CC[C@]4(C)[C@H]3CC[C@]12C [20β-Hydroxyprogesterone]	0.026	
C[C@]12C=CC(=O)C=C1CC[C@@H]1[C@@H]2[C@@H](O)C[C@@]2(C)[C@H]1CC[C@]2(O)C(=O)CO [Prednisolone]	0.10	
C[C@]12CCC(=O)C=C1CC[C@@H]1[C@@H]2CC[C@@]2(C)[C@H]1CC[C@]2(O)C(=O)CO [11-Desoxycortisol]	0.11	
C[C@]12C[C@H](O)[C@H]3[C@@H](CCC4=CC(=O)CC[C@@]43C)[C@@H]1CC[C@@H]2C(=O)CO [Corticosterone]	0.12	
C[C@]12CC[C@@H](O)C[C@H]1CC[C@@H]1[C@@H]2[C@@H](O)C[C@@]2(C)[C@H]1CC[C@]2(O)C(=O)CO [Tetrahydrocortisol]	< 0.001	
C[C@]12CCC(=O)C=C1CC[C@@H]1[C@@H]2C(=O)C[C@@]2(C)[C@H]1CC[C@]2(O)C(=O)CO [Cortisone]	0.008	
CC(C)CCC[C@@H](C)[C@H]1CC[C@H]2[C@@H]3CC=C4C[C@@H](O)CC[C@]4(C)[C@H]3CC[C@]12C [Cholesterol]	< 0.001	
C[C@]12CCC(=O)C=C1CC[C@@H]1[C@@H]2CC[C@]2(C)C(=O)CC[C@@H]12 [Androstenedione]	< 0.004	
C[C@]12C=CC(=O)C=C1CC[C@@H]1[C@@H]2C(=O)C[C@@]2(C)[C@H]1CC[C@]2(O)C(=O)CO [Prednisone]	0.004	
